Reference: publication PMC9090415, “Discovery of small molecule inhibitors of Plasmodium falciparum apicoplast DNA polymerase” (Journal of Enzyme Inhibition and Medicinal Chemistry, 2022)

Biological target: P. falciparum apicoplast DNA polymerase (Pf-apPOL) (Plasmodium falciparum, UniProt Q8ILY1)
Assay: Fluorescence-based high-throughput DNA polymerase assay (molecular beacon), primary screen and dose-response
Format: biochemical
Details: for DNA Pol: 90 min, 10 µM
Method: The HT assay employs a molecular beacon, a stem-loop DNA template with a Cy3 dye and the Black Hole Quencher on the 3′ and 5′ ends of the DNA, respectively. Pf-apPOL concentration is based on a calculated absorptivity of ε280 = 56750 M^−1 cm^−1. Reactions were carried out at 25 °C, using Corning 3575 […] (well-volume, 20 µL). Assays testing for compound inhibition composed of reaction buffer (pH 7.9 in 50 mM potassium acetate, 20 mM Tris-acetate and 10 mM magnesium acetate), Pf-apPOL (20 nM), DNA substrate (20 nM), dNTPs (6 µM), and compound (10 µM in DMSO). The DNA and nucleotide substrates (dNTPs) were at concentrations of 20 nM and 6 µM, respectively, in the assay. Pf-apPOL was incubated in the reaction buffer with dNTPs and the compound of interest (10 µM, in the assay) at 25 °C for 10 min. The DNA substrate was then added and the reaction was allowed to proceed for 90 min at 25 °C.
Each assay plate contained 16 negative controls (no Pf-apPOL, DMSO present) and 16 positive controls (Pf-apPOL present, no DMSO). The fluorescence of each well was determined using a BioTek Synergy Neo fluorescence plate reader using excitation and emission wavelengths of 555 and 570 nm, respectively.
In the above, Min is the average of fluorescence emission of the negative controls (substrate only), Max the average fluorescence emission from the positive controls (enzyme + substrate), and Test the emission from the assays in the presence of compounds (enzyme + compound + substrates). […] […] The IC50 of each compound was determined using Equation (2): (2) IC50= Vmax/(1+ (I/IC50)^n)
In the above, n measures cooperativity, with n > 1 indicating synergistic binding of more than a single molecule of the compound.
To identify apPOL inhibitors we utilised our previously developed high-throughput DNA polymerase assay. The HT assay is based on a molecular beacon DNA template that forms a stem-loop with a Cy3 dye and the Black Hole Quencher on the 3′ and 5′ ends of the DNA, respectively. DNA polymerase activity extends an annealed primer through the stem region, displacing the fluorophore from the quencher, thereby increasing its fluorescence (Figure 1(A)). The assay accurately recapitulates the kinetic behaviour of apPOL, as measured through more conventional low-throughput gel-based assays. The Z′ factor for the assay described here was 0.9 across all plates (data not shown).
Figure 1. High-throughput screening. (A) The fluorescent-based DNA polymerase assay used to screen the compound libraries. The DNA template strand is a hairpin loop with a primer annealed to the loop. The 3’ end of the primer is 11 bases away from the 6 bp duplex. Strand displacement activity of the DNA polymerase separates the Cy3 dye from the Black hole quencher leading to an increase in fluorescent signal. (B) The high-throughput assay workflow. The DNA polymerase is incubated with […] compound for 10 min prior to addition of the hairpin substrate. The reaction is quenched at 3 different time points and the fluorescent signal is measured and % inhibition is determined using the provided equation.

P. falciparum apicoplast DNA polymerase (Pf-apPOL), sequence (Q8ILY1 entry or part of it): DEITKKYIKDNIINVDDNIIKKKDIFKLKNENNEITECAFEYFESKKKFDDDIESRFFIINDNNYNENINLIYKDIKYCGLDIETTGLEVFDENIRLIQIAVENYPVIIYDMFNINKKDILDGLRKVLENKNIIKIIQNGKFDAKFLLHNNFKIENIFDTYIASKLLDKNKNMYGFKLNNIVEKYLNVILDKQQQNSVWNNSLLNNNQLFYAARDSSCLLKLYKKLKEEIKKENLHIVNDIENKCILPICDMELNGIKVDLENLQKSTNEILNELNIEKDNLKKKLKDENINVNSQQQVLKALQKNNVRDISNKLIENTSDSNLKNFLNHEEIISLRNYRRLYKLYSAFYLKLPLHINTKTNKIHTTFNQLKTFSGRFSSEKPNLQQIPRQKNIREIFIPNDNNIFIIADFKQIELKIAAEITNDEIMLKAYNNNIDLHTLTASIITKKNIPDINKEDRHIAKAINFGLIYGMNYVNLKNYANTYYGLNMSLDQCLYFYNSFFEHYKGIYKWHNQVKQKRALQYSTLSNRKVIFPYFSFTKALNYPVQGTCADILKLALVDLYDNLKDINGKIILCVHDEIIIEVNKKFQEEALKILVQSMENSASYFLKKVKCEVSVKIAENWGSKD

O=C(Nc1cccc(Cl)c1)Nc1nnc(-c2ccncc2)s1 [KU0022348]
% inhibition Apo pol 10' (DRC-1, concentration 2.5): 12.66%
% inhibition Apo pol 10' (DRC-1, concentration 5): -6.2957%
% inhibition Apo pol 10' (DRC-1, concentration 10): 19.819%
% inhibition Apo pol 10' (DRC-1, concentration 20): 75.3838%
% inhibition Apo pol 10' (DRC-1, concentration 40): 88.0392%
% inhibition Apo pol 10' (DRC-1, concentration 80): 86.8157%
% inhibition Apol 90' (DRC-1, concentration 2.5): 6.139%
% inhibition Apol 90' (DRC-1, concentration 5): -8.679%
% inhibition Apol 90' (DRC-1, concentration 10): 12.9186%
% inhibition Apol 90' (DRC-1, concentration 20): 70.4338%
% inhibition Apol 90' (DRC-1, concentration 40): 84.2961%
% inhibition Apol 90' (DRC-1, concentration 80): 86.1912%
% inhibition apPOL 180' (DRC-1, concentration 2.5): 0.3318%
% inhibition apPOL 180' (DRC-1, concentration 5): -11.6465%
% inhibition apPOL 180' (DRC-1, concentration 10): 5.454%
% inhibition apPOL 180' (DRC-1, concentration 20): 60.8254%
% inhibition apPOL 180' (DRC-1, concentration 40): 80.4807%
% inhibition apPOL 180' (DRC-1, concentration 80): 84.4697%
% inhibition Apo pol 5' (DRC-2, concentration 2.5): 16%
% inhibition Apo pol 5' (DRC-2, concentration 5): 32%
% inhibition Apo pol 5' (DRC-2, concentration 10): 46%
% inhibition Apo pol 5' (DRC-2, concentration 20): 47%
% inhibition Apo pol 5' (DRC-2, concentration 40): 48%
% inhibition Apo pol 5' (DRC-2, concentration 80): 40%
% inhibition Apol 40' (DRC-2, concentration 2.5): 18%
% inhibition Apol 40' (DRC-2, concentration 5): 42%
% inhibition Apol 40' (DRC-2, concentration 10): 64%
% inhibition Apol 40' (DRC-2, concentration 20): 66%
% inhibition Apol 40' (DRC-2, concentration 40): 71%
% inhibition Apol 40' (DRC-2, concentration 80): 57%
% inhibition ApPOL 90' (DRC-2, concentration 2.5): 16%
% inhibition ApPOL 90' (DRC-2, concentration 5): 41%
% inhibition ApPOL 90' (DRC-2, concentration 10): 65%
% inhibition ApPOL 90' (DRC-2, concentration 20): 67%
% inhibition ApPOL 90' (DRC-2, concentration 40): 73%
% inhibition ApPOL 90' (DRC-2, concentration 80): 64%
% inhibition apPOL 180' (DRC-2, concentration 2.5): 6%
% inhibition apPOL 180' (DRC-2, concentration 5): 30%
% inhibition apPOL 180' (DRC-2, concentration 10): 58%
% inhibition apPOL 180' (DRC-2, concentration 20): 60%
% inhibition apPOL 180' (DRC-2, concentration 40): 70%
% inhibition apPOL 180' (DRC-2, concentration 80): 65%
% inhibition Apo pol 5' (conc. 2.5, DRC-2): 16%
% inhibition ApPOL 90' (conc. 2.5, DRC-2): 16%
% inhibition Apol 40' (conc. 10, DRC-2): 64%
% inhibition ApPOL 90' (conc. 10, DRC-2): 65%
% inhibition ApPOL 90' (conc. 80, DRC-2): 64%
% inhibition apPOL 180' (conc. 80, DRC-2): 65%
DNA Pol (primary screen value by plate and well): 61
DNA Pol (primary screen value of the 186 hits, unit not given): 61
